Key:
[1] = test system: mRNA expression of SLC45A2 and MART-1; assay: RT-PCR of SLC45A2 and MART-1 mRNA after MAPK pathway inhibitor treatment; assay type: cell-based, human; settings: 50 nM, 48 hours
Procedure: Real time PCR was done with primers of SLC45A2, MART-1, gp100, and tyrosinase using power syber green PCR master mix (Applied biosystems life technologies). Values were normalized by the amount of the gene encoding GAPDH.
(§1) Mel526 and A375 (BRAF V600E+) and MeWo (BRAF wild type) were treated with BRAF V600E inhibitor, dabrafenib (50 nM), or MEK inhibitor, Trametinib (50 nM) (GlaxoSmithKline) or both for 48 hours. Untreated melanomas were used as control.
Like other melanocyte differentiation proteins such as MART-1, gp100 and tyrosinase, the SLC45A2 gene is regulated by the MITF transcription factor (J Biol Chem, 2002, 277:402-406, Gen Soci Ame, 2008 178:761-769). MITF protein levels are suppressed by oncogenic BRAF through ERK-mediated phosphorylation and degradation (J Cell Biol, 2005, 170:703-708). Thus, it was next investigated whether BRAF or MEK inhibitors can modulate SLC45A2 expression. Melanoma cells were treated with a specific inhibitor of BRAF V600E, dabrafenib (50 nM), or a MEK inhibitor, Trametinib (50 nM), or both for 48 hours and mRNA expression of SLC45A2 and MART-1 was analyzed by RT-PCR. […] To assess the killing effect of SCL45A2-specific CD8 T cells against melanoma cells after treatment with BRAF and MEK inhibitors, a ^51Cr release assay was performed in melanoma cells treated with a BRAF inhibitor, a MEK inhibitor or both for 48 hours.

melanoma cells = assay: 51Cr release assay of SLC45A2-specific CD8 T cells against inhibitor-treated melanoma cells; assay type: cell-based, human; settings: melanoma cells treated for 48 hours
Procedure: SLC45A2-specific CD8 T cells were assayed for specific lysis of SLC45A2-expressing or not expressing targets using standard 51Chromium (51Cr) release assay. Targets were labeled with 100 uCi of 51Cr for 2 hrs and after three times washing, the labeled targets plated triplicated well at a 2000 targets per well. Effector cells were incubated with targets as various effector:target (E:T) ratio. After 4 hours, 30 ul of supernatant was collected from each well and the 51Cr was measured by a gamma counter. The percentage of specific lysis was calculated.
as §1
Like other melanocyte differentiation proteins such as MART-1, gp100 and tyrosinase, the SLC45A2 gene is regulated by the MITF transcription factor (J Biol Chem, 2002, 277:402-406, Gen Soci Ame, 2008 178:761-769). MITF protein levels are suppressed by oncogenic BRAF through ERK-mediated phosphorylation and degradation (J Cell Biol, 2005, 170:703-708). […] Melanoma cells were treated with a specific inhibitor of BRAF V600E, dabrafenib (50 nM), or a MEK inhibitor, Trametinib (50 nM), or both for 48 hours and mRNA expression of SLC45A2 and MART-1 was analyzed by RT-PCR. […]

SMILES | mRNA expression of SLC45A2 and MART-1 ([1]; MeWo cells (wild type BRAF)) | mRNA expression of SLC45A2 and MART-1 ([1]; Mel526 cells (BRAF V600E)) | cytotoxicity of SLC45A2-specific CD8 T cells against treated vs untreated melanoma cells (melanoma cells)
CC(C)(C)c1nc(-c2cccc(NS(=O)(=O)c3c(F)cccc3F)c2F)c(-c2ccnc(N)n2)s1 [dabrafenib] | did not show an increased expression | significant increase | increased cytotoxicity
CC(=O)Nc1cccc(-n2c(=O)n(C3CC3)c(=O)c3c(Nc4ccc(I)cc4F)n(C)c(=O)c(C)c32)c1 [Trametinib] |  |  | increased cytotoxicity
